In ChEMBL document CHEMBL4184282, “Structure-based design and synthesis of macrocyclic human rhinovirus 3C protease inhibitors” (Bioorg Med Chem Lett, 2018):
Square brackets hold non-standard residues; d marks the D form. Peptide text beside a SMILES is read from it. * marks the point of attachment. ξ: configuration not given here. Cbz = O=C(OCc1ccccc1)*; ξDap = NCC(N)C(=O)O

What was measured:
[1] = target: Genome polyprotein (rhinovirus B14, UniProt P03303); assay: Inhibition of Human rhinovirus serotype 14 3C protease preincubated for 1 hr followed by Cys(PT14M)-Ala-Ile-Phe-Gln'Gly-Pro-Asp-Phe(4-NH2)-OH substrate addition measured after 1 hr by fluorescence lifetime readout assay
Genome polyprotein, sequence (P03303 1538-1719 limits assumed): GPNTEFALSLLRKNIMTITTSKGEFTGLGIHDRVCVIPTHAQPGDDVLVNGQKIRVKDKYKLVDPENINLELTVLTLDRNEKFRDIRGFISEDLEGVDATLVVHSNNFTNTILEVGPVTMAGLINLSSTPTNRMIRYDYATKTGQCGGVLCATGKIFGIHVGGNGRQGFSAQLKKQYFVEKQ

[2] = test system: rhinovirus B14; assay: Antiviral activity against Human rhinovirus serotype 14 infected in human HeLa cells assessed as reduction in virus-induced cytopathic effect by measuring reduction in host cell viability preincubated with cells for 6 hrs followed by viral infection measured up to 72 hrs by CellTiter-Glo luminescence assay; type: functional, organism-based; conditions: Rhinovirus B

SMILES | IC50 [1] | EC50 [2]
Cc1cc(C(=O)N[C@@H]2C(=O)N[C@@H](Cc3ccc(F)cc3)C(=O)N[C@H](C=O)CCC(=O)N(C)Cc3cccc2c3)no1 | 8 nM | 0.568 µM
Cc1cc(C(=O)N[C@H]2CCCCN(C)C(=O)CC[C@@H](C=O)NC(=O)[C@@H]3C[C@@H](c4ccccc4)CN3C2=O)no1 | 7370 nM | 28.6 µM
CCOC(=O)/C=C/[C@@H]1CCC(=O)N(C)CCCC[C@H](NC(=O)c2cc(C)on2)C(=O)N[C@@H](Cc2ccc(F)cc2)C(=O)N1 | 3840 nM | > 50 µM
Cc1cc(C(=O)N[C@H]2CCCCN(C)C(=O)CC[C@@H](C=O)NC(=O)[C@H](Cc3ccc(F)cc3)NC2=O)no1 | 63 nM | 3.4 µM
Cc1cc(C(=O)N[C@H]2CNC(=O)C[C@H]3CCCN3C(=O)CC[C@@H](C=O)NC(=O)[C@H](Cc3ccc(F)cc3)NC2=O)no1 | 2 nM | 29.1 µM
Cc1cc(C(=O)N[C@H]2CNC(=O)CN(C)C(=O)CC[C@@H](C=O)NC(=O)[C@H](Cc3ccc(F)cc3)NC2=O)no1 | 18 nM | > 50 µM
Cc1cc(C(=O)N[C@H]2CCCCNC(=O)CC[C@@H](C=O)NC(=O)[C@H](Cc3ccc(F)cc3)NC2=O)no1 | 3200 nM | > 50 µM
Cc1cc(C(=O)N[C@H]2CNC(=O)[C@H]3CCCN3C(=O)CC[C@@H](C=O)NC(=O)[C@H](Cc3ccc(F)cc3)NC2=O)no1 | 6 nM | 33.5 µM
Cc1cc(C(=O)N[C@H]2C/C=C/CCCO[C@H]3CCN(C3)C(=O)CC[C@@H](C=O)NC(=O)[C@H](Cc3ccc(F)cc3)NC2=O)no1 | 2 nM | 2.05 µM
Cc1cc(C(=O)N[C@H]2CCCCN(C)C(=O)CC[C@@H](C(=O)C(=O)N3CCC3)NC(=O)[C@H](Cc3ccc(F)cc3)NC2=O)no1 | 35 nM | 6.1 µM
CC(=O)NCC(C=O)NC(=O)[C@H](Cc1ccccc1)NC(=O)[C@H](CC(C)C)NC(=O)OCc1ccccc1 (stereo partly drawn) (Cbz-Leu-Phe-[ξDap](Ac)-aldehyde) | 7 nM | 1.76 µM
Cc1cc(C(=O)N[C@H]2CCCNC(=O)[C@H]3CCN(C3)C(=O)CC[C@@H](C=O)NC(=O)[C@H](Cc3ccc(F)cc3)NC2=O)no1 | 2 nM | > 50 µM
Cc1cc(C(=O)N[C@@H]2C(=O)N[C@@H](Cc3ccc(F)cc3)C(=O)N[C@H](C=O)CCC(=O)NCc3cccc2c3)no1 | 753 nM | 21.9 µM
Cc1cc(C(=O)N[C@H]2C/C=C/CO[C@H]3CCN(C3)C(=O)CC[C@@H](C=O)NC(=O)[C@H](Cc3ccc(F)cc3)NC2=O)no1 | 3 nM | 5.74 µM
